Legend:
[1] = Hydroxyapatite powder washed in phosphate, then soaked in Burley tobacco extract; settings: compared with unwashed HAP powder and with HAP powder first washed in dibasic sodium phosphate; FIG. 11
[2] = Cow's teeth staining by extract of tea pouches, simulating 6 months of use; settings: extract of pouches with 5.0 g tea and 50 mg sodium hexametaphosphate; 5 soaks of 7 minutes at about 100° F. with brushing; FIG. 9
Description: (§1) To determine the effectiveness of the phosphate containing stain inhibitor on oral sensorial products including tea, a test was performed to simulate 6 months of use of the oral sensorial products. About 187.5 mL artificial saliva and 75 pouches containing 5.0 g tea were placed in a bag in a water bath at 100° F. for 3 minutes. The artificial saliva was formed as part of a 1000 mL batch including 4.20 g sodium bicarbonate, 0.50 g sodium chloride and 0.20 g potassium carbonate. The bag was removed and rolled for about 2 minutes and then returned to the water bath for 10 minutes. This process was repeated four more times (five total). The pouches were then removed from the bag and 50 mL of the extract was placed in a 250 mL crystallization beaker. Cow's teeth were then immersed in the 50 mL of extract, the beaker was covered with polypropylene wrap, and the teeth were soaked for 7 minutes at about 100° F. The teeth were removed from the beaker and rinsed with reverse osmosis water for about 5 seconds. The front enamel of each tooth was brushed with 1 g of Crest® Cavity Protection toothpaste for 30 seconds, rinsed with reverse osmosis water and covered to prevent exposure to light. This regime was repeated 4 additional times (5 total). A second extract was made using pouches including 5.0 g tea and 50 mg sodium hexametaphosphate. […]

[3] = Hydroxyapatite powder soaked in Burley tobacco extract with various amounts of sodium hexametaphosphate; settings: FIG. 13
Description: To determine the effect of various amount of sodium hexametaphosphate, 5.0 grams of Burley tobacco was soaked in 100 mL water at room temperature for 1 hour to form a first extract. A second extract was formed by soaking 5.0 grams of Burley tobacco and […] sodium hexametaphosphate in 100 mL water at room temperature for 1 hour. A third extract was formed by soaking 5.0 grams of Burley tobacco and 0.252 g sodium hexametaphosphate in 100 mL water at room temperature for 1 hour. A fourth extract was formed by soaking 5.0 grams of Burley tobacco and 0.047 g sodium hexametaphosphate in 100 mL water at room temperature for 1 hour. Each extract was then filtered through #2 Watman filter paper. Approximately […] of hydroxyapatite powder was placed in the bottom of each of four centrifuge vials. 14 mL of the first extract was placed in the first vial, 14 mL of the second extract was placed in the second vial, 14 mL of the third extract was placed in the third vial and 14 mL of the fourth extract was placed in the fourth vial. The powder in each vial was allowed to soak for about 1 hour with agitation and then the powder was decanted, washed in distilled water at least three times and decanted each time.

[4] = Cow's teeth staining by extract of Burley tobacco pouches; settings: as printed, the tobacco-only tooth is the darker one; inhibitor extract from 50 mg sodium hexametaphosphate and 5.0 g Burley tobacco; 5 soaks; FIG. 10
Description: as §1, with “inhibitor on solid oral sensorial” for “inhibitor on oral sensorial”, “products including tobacco, 187.5 mL” for “products including tea, a test was performed to simulate 6 months of use of the oral sensorial products. About 187.5 mL”, “5.0 g Burley tobacco were placed” for “5.0 g tea were placed”, “of the Burley tobacco extract was” for “of the extract was”, “5.0 g Burley tobacco and 50” for “5.0 g tea and 50”

[5] = Hydroxyapatite powder soaked in tea extract; settings: 5.0 g tea and 50 mg sodium hexametaphosphate in 100 mL water, room temperature, about 1 hour; FIG. 12
Description: A second extract was formed by soaking 5.0 g of tea in 100 mL water at room temperature for about 1 hour. Each extract was then filtered through #2 Watman filter paper. Approximately 152 mg of hydroxyapatite powder was placed in the bottom of each of two centrifuge vials. 14 mL of the first extract was placed in one vial and 14 mL of the second extract was placed in the second vial.

Compound: O=P1([O-])OP(=O)([O-])OP(=O)([O-])OP(=O)([O-])OP(=O)([O-])OP(=O)([O-])O1.[Na+].[Na+].[Na+].[Na+].[Na+].[Na+] [sodium hexametaphosphate]
- color of HAP powder first washed in the phosphate and then soaked in Burley tobacco extract [1]: visibly whiter
- color of cow's teeth exposed to sodium hexametaphosphate and tea compared with teeth exposed to tea alone [2]: noticeably lighter in color
- color of powders soaked in extracts with larger amounts of sodium hexametaphosphate compared with smaller amounts ([3]; 25.080 g, 0.252 g and 0.047 g sodium hexametaphosphate with 5.0 g Burley tobacco in 100 mL water): lighter in color
- color of powder soaked in Burley tobacco extract alone compared with powders soaked in extracts including sodium hexametaphosphate ([3]; as printed, the tobacco-only powder is the darker one, 5.0 g Burley tobacco with 25.080 g, 0.252 g or 0.047 g sodium hexametaphosphate in 100 mL water): visibly darker
- color of cow's tooth soaked in Burley tobacco extract alone compared with tooth soaked in extract with sodium hexametaphosphate [4]: visibly darker
- color of HAP powder soaked in extract of tea and sodium hexametaphosphate compared with tea alone [5]: visibly whiter

— US8568801B2, “Solid oral sensorial products including stain inhibitor” (Philip Morris USA Inc., priority 2010, dated 2013)
